Assay: xn = mol fraction of the nth substance listed

CCCCOCCO + C1CCCCC1
viscosity [mPa·s], 101 kPa
Settings	298.15 K	308.15 K
x1 = 0.0557	0.95	0.79
x1 = 0.1501	1.046	0.866
x1 = 0.2504	1.162	0.958
x1 = 0.3543	1.3	1.066
x1 = 0.4488	1.443	1.178
x1 = 0.5025	1.532	1.248
x1 = 0.5493	1.616	1.313
x1 = 0.6485	1.813	1.465
x1 = 0.7494	2.043	1.642
x1 = 0.8511	2.311	1.848
x1 = 0.9556	2.631	2.091

CNC=O + CCC(=O)O
viscosity [mPa·s], 100 kPa
Settings	x1 = 0.1115	x1 = 0.1858	x1 = 0.2665	x1 = 0.3545	x1 = 0.4849	x1 = 0.5942	x1 = 0.6734	x1 = 0.7583	x1 = 0.8978
303.15 K	1.025	1.069	1.116	1.169	1.248	1.315	1.365	1.42	1.514
308.15 K	0.9555	0.9958	1.039	1.087	1.159	1.22	1.265	1.315	1.399
313.15 K	0.8989	0.9358	0.9757	1.019	1.083	1.138	1.179	1.223	1.298
318.15 K	0.8503	0.8846	0.9214	0.9605	1.019	1.068	1.104	1.143	1.209

CCCCCCCCN(CCCCCCCC)CCCCCCCC + CCCCCC
Settings	viscosity [mPa·s]
298 K, 101.3 kPa, x1 = 0.00584	0.331

CCCCOCCO + OCCOCCOCCO
101 kPa
Settings	viscosity [mPa·s]
293.15 K, x1 = 0.048	36.14
293.15 K, x1 = 0.111	30.89
293.15 K, x1 = 0.1958	25.06
293.15 K, x1 = 0.3023	19.11
293.15 K, x1 = 0.4053	14.62
293.15 K, x1 = 0.4492	12.94
293.15 K, x1 = 0.4988	11.29
293.15 K, x1 = 0.5502	9.833
293.15 K, x1 = 0.5922	8.791
293.15 K, x1 = 0.6915	6.755
293.15 K, x1 = 0.7959	5.249
293.15 K, x1 = 0.8902	4.37
293.15 K, x1 = 0.9457	3.879
298.15 K, x1 = 0.0536	30.5
298.15 K, x1 = 0.1049	27.17
298.15 K, x1 = 0.2064	21.51
298.15 K, x1 = 0.2953	17.55
298.15 K, x1 = 0.3982	13.71
298.15 K, x1 = 0.4518	12.06
298.15 K, x1 = 0.5018	10.7
298.15 K, x1 = 0.5494	9.463
298.15 K, x1 = 0.5998	8.336
298.15 K, x1 = 0.6966	6.451
298.15 K, x1 = 0.7997	4.971
298.15 K, x1 = 0.8916	3.873
298.15 K, x1 = 0.9411	3.369
303.15 K, x1 = 0.0501	26.39
303.15 K, x1 = 0.1015	23.75
303.15 K, x1 = 0.197	19.42
303.15 K, x1 = 0.3006	15.59
303.15 K, x1 = 0.4006	12.58
303.15 K, x1 = 0.4531	11.14
303.15 K, x1 = 0.4972	10.12
303.15 K, x1 = 0.5469	8.986
303.15 K, x1 = 0.6012	7.888
303.15 K, x1 = 0.6893	6.343
303.15 K, x1 = 0.803	4.661
303.15 K, x1 = 0.89	3.59
303.15 K, x1 = 0.9416	3.02

CNC=O + CCCO
viscosity [mPa·s], 101 kPa
Settings	x2 = 0.1009	x2 = 0.2001	x2 = 0.3003	x2 = 0.4003	x2 = 0.5005	x2 = 0.6	x2 = 0.7001	x2 = 0.8009	x2 = 0.9007
303.15 K	1.545	1.51	1.475	1.454	1.441	1.444	1.464	1.52	1.605
308.15 K	1.423	1.389	1.357	1.336	1.322	1.321	1.337	1.381	1.448
313.15 K	1.316	1.284	1.252	1.231	1.216	1.213	1.225	1.258	1.31
318.15 K	1.22	1.189	1.158	1.138	1.123	1.118	1.124	1.149	1.188
323.15 K	1.134	1.105	1.075	1.054	1.036	1.03	1.034	1.051	1.079

From the CheMixHub viscosity set
